Results on eight molecules are retold here after PubChem BioAssay AID1259407 (Chemical Carcinogenesis Research Information System (CCRIS), 2018).

Calls of active or inactive are those of the source. The rule behind the calls is not given here.

The series concerns CCRIS mutagenicity, Ames/micronucleus/aberration tests. Put plainly: CCRIS mutagenicity studies.
Setting [1] is: Test System: AMES SALMONELLA TYPHIMURIUM, Strain/Indicator: TA98, Metabolic Activation: NONE, Method: PREINCUBATION
[2] abbreviates: Test System: AMES SALMONELLA TYPHIMURIUM, Strain/Indicator: TA100, Metabolic Activation: NONE, Method: PREINCUBATION
[3] abbreviates: Test System: AMES SALMONELLA TYPHIMURIUM, Strain/Indicator: TA100, Metabolic Activation: RAT, LIVER, S-9, AROCLOR 1254, Method: PREINCUBATION
[4] abbreviates: Test System: AMES SALMONELLA TYPHIMURIUM, Strain/Indicator: TA1535, Metabolic Activation: NONE, Method: PREINCUBATION
Where [5] appears, read: Test System: AMES SALMONELLA TYPHIMURIUM, Strain/Indicator: TA1537, Metabolic Activation: NONE, Method: PREINCUBATION
Where [6] appears, read: Test System: AMES SALMONELLA TYPHIMURIUM, Strain/Indicator: TA100, Metabolic Activation: NONE, Method: STANDARD PLATE.

Regarding `Nc1c(Br)cc(Br)c2c1C(=O)c1ccccc1C2=O`, the mutagenic call is “inactive; negative” (End Point: IN VITRO CHROMOSOMAL ABERRATIONS, Test System: CHO-LB CELLS, Metabolic Activation: NONE); “inactive; negative” (End Point: IN VITRO CHROMOSOMAL ABERRATIONS, Test System: CHO-LB CELLS, Metabolic Activation: RAT, LIVER, S-9, AROCLOR 1254); “inactive; negative” (Test System: AMES SALMONELLA TYPHIMURIUM, Strain/Indicator: TA98, Metabolic Activation: HAMSTER, LIVER, S-9, AROCLOR 1254 (10%), Method: PREINCUBATION); “inactive; negative” (Test System: AMES SALMONELLA TYPHIMURIUM, Strain/Indicator: TA98, Metabolic Activation: HAMSTER, LIVER, S-9, AROCLOR 1254, Method: PREINCUBATION); “active; positive” under setting [1]; “inactive; negative” (Test System: AMES SALMONELLA TYPHIMURIUM, Strain/Indicator: TA98, Metabolic Activation: RAT, LIVER, S-9, AROCLOR 1254 (10%), Method: PREINCUBATION). Besides, the mutagenic call by setting is: (Test System: AMES SALMONELLA TYPHIMURIUM, Strain/Indicator: TA98, Metabolic Activation: RAT, LIVER, S-9, AROCLOR 1254, Method: PREINCUBATION) “inactive; negative”; (Test System: AMES SALMONELLA TYPHIMURIUM, Strain/Indicator: TA100, Metabolic Activation: HAMSTER, LIVER, S-9, AROCLOR 1254, Method: PREINCUBATION) “inactive; negative”; under setting [2], “inactive; negative”; under setting [3], “inactive; negative”; (Test System: AMES SALMONELLA TYPHIMURIUM, Strain/Indicator: TA1535, Metabolic Activation: HAMSTER, LIVER, S-9, AROCLOR 1254 (10%), Method: PREINCUBATION) “inactive; negative”; (Test System: AMES SALMONELLA TYPHIMURIUM, Strain/Indicator: TA1535, Metabolic Activation: HAMSTER, LIVER, S-9, AROCLOR 1254, Method: PREINCUBATION) “inactive; negative”. Besides, the mutagenic call by setting is: under setting [4], “inactive; negative”; (Test System: AMES SALMONELLA TYPHIMURIUM, Strain/Indicator: TA1535, Metabolic Activation: RAT, LIVER, S-9, AROCLOR 1254 (10%), Method: PREINCUBATION) “inactive; negative”; (Test System: AMES SALMONELLA TYPHIMURIUM, Strain/Indicator: TA1535, Metabolic Activation: RAT, LIVER, S-9, AROCLOR 1254, Method: PREINCUBATION) “inactive; negative”; (Test System: AMES SALMONELLA TYPHIMURIUM, Strain/Indicator: TA1537, Metabolic Activation: HAMSTER, LIVER, S-9, AROCLOR 1254, Method: PREINCUBATION) “inactive; negative”; under setting [5], “active; positive”; (Test System: AMES SALMONELLA TYPHIMURIUM, Strain/Indicator: TA1537, Metabolic Activation: RAT, LIVER, S-9, AROCLOR 1254, Method: PREINCUBATION) “active; positive”.
`Cc1cc(N=Nc2ccccc2C)c(N)cc1N`: the mutagenic call by setting is: (Test System: AMES SALMONELLA TYPHIMURIUM, Strain/Indicator: TA100, Metabolic Activation: HUMAN, LIVER, S-9, Method: PREINCUBATION) “inactive; negative”; (Test System: AMES SALMONELLA TYPHIMURIUM, Strain/Indicator: TA100, Metabolic Activation: RAT, LIVER, S-9, BETA-NAPHTHOFLAVONE, Method: PREINCUBATION) “active; positive”; (Test System: AMES SALMONELLA TYPHIMURIUM, Strain/Indicator: TA100, Metabolic Activation: RAT, LIVER, S-9, PHENOBARBITAL, Method: PREINCUBATION) “active; positive”; (Test System: AMES SALMONELLA TYPHIMURIUM, Strain/Indicator: TA100, Metabolic Activation: RAT, LIVER, S-9, Method: PREINCUBATION) “active; positive”; (Test System: UDS RODENT HEPATOCYTES, Strain/Indicator: THY INCORP, Metabolic Activation: NONE, Method: AUTORADIOGRAPHY) “active; positive”.
Turning to `COc1nsc2c(OCC3CO3)cccc12` (stereo unspecified), the mutagenic call under setting [6] was “active; positive”.
For the molecule `Nc1ccc2cc3ccccc3nc2c1`, the mutagenic call is, setting by setting: under setting [4], “inactive; negative”; (Test System: AMES SALMONELLA TYPHIMURIUM, Strain/Indicator: TA1535, Metabolic Activation: RAT, LIVER, S-9, TETRACHLOROBIPHENYL, Method: PREINCUBATION) “active; positive”; under setting [5], “active; positive”; (Test System: AMES SALMONELLA TYPHIMURIUM, Strain/Indicator: TA1537, Metabolic Activation: RAT, LIVER, S-9, TETRACHLOROBIPHENYL, Method: PREINCUBATION) “active; positive”; (Test System: AMES SALMONELLA TYPHIMURIUM, Strain/Indicator: TA1538, Metabolic Activation: NONE, Method: PREINCUBATION) “active; positive”; (Test System: AMES SALMONELLA TYPHIMURIUM, Strain/Indicator: TA1538, Metabolic Activation: RAT, LIVER, S-9, TETRACHLOROBIPHENYL, Method: PREINCUBATION) “active; positive”. In addition, the mutagenic call was “inactive; negative” (Test System: AMES SALMONELLA TYPHIMURIUM, Strain/Indicator: TA1975, Metabolic Activation: RAT, LIVER, S-9, TETRACHLOROBIPHENYL, Method: PREINCUBATION); “active; positive” (Test System: AMES SALMONELLA TYPHIMURIUM, Strain/Indicator: TA1977, Metabolic Activation: NONE, Method: PREINCUBATION); “active; positive” (Test System: AMES SALMONELLA TYPHIMURIUM, Strain/Indicator: TA1977, Metabolic Activation: RAT, LIVER, S-9, TETRACHLOROBIPHENYL, Method: PREINCUBATION); “active; positive” (Test System: AMES SALMONELLA TYPHIMURIUM, Strain/Indicator: TA1978, Metabolic Activation: RAT, LIVER, S-9, TETRACHLOROBIPHENYL, Method: PREINCUBATION).
With `O=C(Cl)OCc1ccccc1`, the mutagenic call reads like this: (Test System: AMES SALMONELLA TYPHIMURIUM, Strain/Indicator: TA98, Metabolic Activation: NONE, Method: STANDARD PLATE) “inactive; negative”; (Test System: AMES SALMONELLA TYPHIMURIUM, Strain/Indicator: TA98, Metabolic Activation: RAT, LIVER, S-9, AROCLOR 1254, Method: STANDARD PLATE) “inactive; negative”; under setting [6], “inactive; negative”; (Test System: AMES SALMONELLA TYPHIMURIUM, Strain/Indicator: TA100, Metabolic Activation: RAT, LIVER, S-9, AROCLOR 1254, Method: STANDARD PLATE) “inactive; negative”; (Test System: AMES SALMONELLA TYPHIMURIUM, Strain/Indicator: TA1535, Metabolic Activation: NONE, Method: STANDARD PLATE) “inactive; negative”; (Test System: AMES SALMONELLA TYPHIMURIUM, Strain/Indicator: TA1535, Metabolic Activation: RAT, LIVER, S-9, AROCLOR 1254, Method: STANDARD PLATE) “inactive; negative”. Moreover, the mutagenic call reads like this: (Test System: AMES SALMONELLA TYPHIMURIUM, Strain/Indicator: TA1537, Metabolic Activation: NONE, Method: STANDARD PLATE) “inactive; negative”; (Test System: AMES SALMONELLA TYPHIMURIUM, Strain/Indicator: TA1537, Metabolic Activation: RAT, LIVER, S-9, AROCLOR 1254, Method: STANDARD PLATE) “inactive; negative”.
Take `O=c1[nH][nH]c(=O)c2cc([N+](=O)[O-])ccc12`: the mutagenic call by setting is: (Test System: AMES SALMONELLA TYPHIMURIUM, Strain/Indicator: TA98, Metabolic Activation: HAMSTER, LIVER, S-9, AROCLOR 1254 (30%), Method: PREINCUBATION) “active; positive”; under setting [1], “active; positive”; (Test System: AMES SALMONELLA TYPHIMURIUM, Strain/Indicator: TA98, Metabolic Activation: RAT, LIVER, S-9, AROCLOR 1254 (30%), Method: PREINCUBATION) “active; positive”; (Test System: AMES SALMONELLA TYPHIMURIUM, Strain/Indicator: TA100, Metabolic Activation: HAMSTER, LIVER, S-9, AROCLOR 1254 (30%), Method: PREINCUBATION) “active; positive”; under setting [2], “active; positive”; (Test System: AMES SALMONELLA TYPHIMURIUM, Strain/Indicator: TA100, Metabolic Activation: RAT, LIVER, S-9, AROCLOR 1254 (30%), Method: PREINCUBATION) “inactive; negative”.
Take `CCCC/C=C/C=C/C=C/C=C/C=C/OC[C@@H](O)CO`: the mutagenic call is “active; positive” under setting [2] and “active; positive” under setting [3].
As for `CC(=O)Nc1ccc2c(c1)Cc1cc(NC(C)=O)ccc1-2`, the mutagenic call (Test System: AMES SALMONELLA TYPHIMURIUM, Strain/Indicator: TA1538, Metabolic Activation: RAT, LIVER, S-9, PHENOBARBITAL, Method: STANDARD PLATE) is “active; positive”.
